Measured values reported in patent publication US7166609B2, “Pyrimidine-4,6-dicarboxylic acid diamides for selectively inhibiting collagenases” (Sanofi-Aventis Deutschland GmbH, priority 2002, dated 2007).
pIC50: −log10 of the molar value.

Molecular target: T1, catalytic domain of human collagenase 3 (MMP-13) (Homo sapiens, UniProt P45452)
T1 construct: Determining the enzyme activity of the catalytic domain of human collagenase 3 (MMP-13); purchased INVITEK, Berlin 30 100 803
Assay: Enzyme activity of the catalytic domain of human collagenase 3 (MMP-13), fluorogenic substrate
Assay type: biochemical
Details: catalytic domain, activated proenzyme, pH 7.5; read-out: IC50 MMP13
Method: Determining the enzyme activity of the catalytic domain of human collagenase 3 (MMP-13).
Activating the proenzyme:
2 parts by volume of proenzyme are incubated with 1 part by volume of APMA solution at 37° C. for 1.5 hours. The APMA solution is prepared from a 10 mmol/L solution of p-aminophenylmercuric acetate in 0.1 mmol/L NaOH by diluting with 3 parts by volume of tris/HCl buffer, pH 7.5 (see below). The pH is adjusted to between 7.0 and 7.5 by adding 1 mmol/L HCl. After the enzyme has been activated, it is diluted to a concentration of 1.67 μg/ml using the tris/HCl buffer.
In order to measure the enzyme activity, 10 μL of enzyme solution are incubated for 15 minutes with 10 μL of a 3% (v/v) buffered solution of dimethyl sulfoxide (reaction 1). In order to measure the enzyme inhibitor activity, 10 μL of enzyme solution are incubated with 10 μL of a 3% (v/v) buffered solution of dimethyl sulfoxide containing the enzyme inhibitor (reaction 2).
In the case of both reaction 1 and reaction 2, the enzyme reaction is monitored by fluorescence spectroscopy (328 nm (extinction)/393 nm (emission)) after adding 10 μL of a 3% (v/v) aqueous solution of dimethyl sulfoxide containing 0.75 mmol of the substrate/L.
The enzyme activity is depicted as increase in extinction/minute.
The effect of the inhibitor is calculated as a percentage inhibition using the following formula: % inhibition=100−[(increase in extinction/minute in reaction 2)/(increase in extinction/minute in reaction 1)×100].
The IC50, i.e. the inhibitor concentration which is required for inhibiting the enzyme activity by 50%, is determined graphically by plotting the percentage inhibitions at different inhibitor concentrations.
The buffer solution contains 0.05% Brij (Sigma, Deisenhofen, Germany) and 0.1 mol of tris/HCl/L, 0.1 mol of NaCl/L and 0.01 mol of CaCl2/L (pH=7.5). The enzyme solution contains 1.67 μg of the enzyme domain/mL.
The substrate solution contains 0.75 mmol/L of the fluorogenic substrate (7-methoxycoumarin-4-yl)acetyl-Pro-Leu-Gly-Leu-3-(2′,4′-dinitrophenyl)-L-2,3-diaminopropionyl-Ala-Arg-NH2 (Bachem, Heidelberg, Germany).

First: COc1cccc(CNC(=O)c2cc(C(=O)NCc3cccc(NC(=O)OC(C)C)c3)ncn2)c1 [Example 150]
Second: COc1cccc(CNC(=O)c2cc(C(=O)NCc3ccc(C(=O)N4CCOCC4)cc3)ncn2)c1 [Example 151]
The pIC50 of the first is 0.95 log units lower: 7.10 for the first, 8.05 for the second.

`CCN(CC)C(=O)c1ccc(CNC(=O)c2cc(C(=O)NCc3ccc(F)c(Cl)c3)ncn2)cc1` [Example 153] and `O=C(NCc1ccc(C(=O)N2CCOCC2)cc1)c1cc(C(=O)NCc2ccc(F)c(Cl)c2)ncn1` [Example 154] are within 0.2 log units of each other in pIC50: 7.82 for the first, 7.66 for the second.
